# Measurements: US9302999B2, “Substituted triazoles as herbicides” (E. I. DU PONT DE NEMOURS AND COMPANY, priority 2012, dated 2016)
# Experiments:
# Assay type in all cases: in vivo
# [1] = system: barnyardgrass (Echinochloa crus-galli); test: Test A pre-/postemergence: barnyardgrass; conditions: for Barnyardgrass plant response rating: Postemergence; for Plant response rating, Barnyardgrass: Preemergence
# How it was run: (§1)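 Injury is scored visually on a scale where 0 means no effect and 100 complete control, comparing treated with untreated plants after approximately ten greenhouse days. Both preemergence and postemergence applications are made at the same time.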
# [2] = system: crabgrass, large (large crabgrass, Digitaria sanguinalis); test: Test A pre-/postemergence: crabgrass, large; conditions: for Crabgrass, Large plant response rating: Postemergence; for Plant response rating, Crabgrass, Large: Preemergence
# How it was run: as §1
# [3] = system: pigweed (Amaranthus retroflexus); test: Test A pre-/postemergence: pigweed; conditions: for Pigweed plant response rating: Postemergence; for Plant response rating, Pigweed: Preemergence
# How it was run: as §1
# [4] = system: wheat (Triticum aestivum); test: Test A pre-/postemergence: wheat; conditions: for Wheat plant response rating: Postemergence; for Plant response rating, Wheat: Preemergence
# How it was run: as §1
# [5] = system: blackgrass (Alopecurus myosuroides); test: Test C pre-/postemergence: blackgrass
# How it was run: (§2)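 Preemergence on seeds in loam/sand, postemergence on 2–18 cm (1–4-leaf) plants in peat-based medium; compounds in non-phytotoxic solvent with surfactant. After 13–15 days in greenhouse, visual rating versus controls, 0 (no effect) to 100 (complete control).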
# [6] = system: corn (Zea mays); test: Test C pre-/postemergence: corn
# Text: (§3) Seeds of plant species selected from blackgrass (Alopecurus myosuroides), bromegrass, downy (downy bromegrass, Bromus tectorum), foxtail, green (green foxtail, Setaria viridis), ryegrass, Italian (Italian ryegrass, Lolium multiflorum), winter wheat (Triticum aestivum), wild oat (Avena fatua), galium (catchweed bedstraw, Galium aparine), bermudagrass (Cynodon dactylon), surinam grass (Brachiaria decumbens), cocklebur (common cocklebur, Xanthium strumarium), corn (Zea mays), large crabgrass (Digitaria sanguinalis), woolly cupgrass (Eriochloa villosa), foxtail, giant (giant foxtail, Setaria faberii), goosegrass (Eleusine indica), johnsongrass (Sorghum halepense), kochia (Kochia scoparia), lambsquarters (Chenopodium album), morningglory (Ipomoea coccinea), nightshade (eastern black nightshade, Solanum ptycanthum), nutsedge, yellow (yellow nutsedge, Cyperus esculentus), pigweed (Amaranthus retroflexus), ragweed (common ragweed, Ambrosia elation), soybean (Glycine max), common (oilseed) sunflower (Helianthus annuus), Russian thistle (Salsola kali) and velvetleaf (Abutilon theophrasti) were planted into a blend of loam soil and sand and treated preemergence with test chemicals formulated in a non-phytotoxic solvent mixture which included a surfactant.
# (§4) At the same time, plants selected from these crop and weed species and also barley (winter barley, Hordeum vulgare), canarygrass (Phalaris minor), chickweed (common chickweed, Stellaria media) windgrass (Apera spica-venti) and deadnettle (henbit deadnettle, Lamium amplexicaule) were planted in pots containing Redi-Earth® planting medium (Scotts Company, 14111 Scottslawn Road, Marysville, Ohio 43041) comprising spaghnum peat moss, vermiculite, wetting agent and starter nutrients and treated with postemergence applications of test chemicals formulated in the same manner. Plants ranged in height from 2 to 18 cm (1- to 4-leaf stage) for postemergence treatments.
# (§5) Treated plants and controls were maintained in a greenhouse for 13 to 15 days, after which time all species were compared to controls and visually evaluated. Plant response ratings, summarized in Table C, are based on a scale of 0 to 100 where 0 is no effect and 100 is complete control. A dash (-) response means no test result.
# [7] = system: large crabgrass (Digitaria sanguinalis); test: Test C pre-/postemergence: large crabgrass
# Text: as §3, §4, §5
# [8] = system: foxtail, giant (giant foxtail, Setaria faberii); test: Test C pre-/postemergence: foxtail, giant
# Text: as §3, §4, §5
# [9] = system: lambsquarters (Chenopodium album); test: Test C pre-/postemergence: lambsquarters
# How it was run: as §2
# [10] = system: nutsedge, yellow (yellow nutsedge, Cyperus esculentus); test: Test C pre-/postemergence: nutsedge, yellow
# Text: as §3, §4, §5
# [11] = 125 g ai/ha, 0 to 100 scale, 0 is no effect, 100 is complete control
# [12] = 500 g ai/ha, visual rating on 0 to 100 scale (0 no effect, 100 complete control), approximately ten days
# [13] = 125 g ai/ha, 0 to 100 scale (0 no effect, 100 complete control)
# [14] = 500 g ai/ha, 0 to 100 scale, 0 is no effect, 100 is complete control
# [15] = Postemergence, 31 g ai/ha, scale 0 to 100 (0 no effect, 100 complete control)
# [16] = Postemergence, 62 g ai/ha, scale 0 to 100 (0 no effect, 100 complete control)
# [17] = Postemergence, 125 g ai/ha, scale 0 to 100, 0 no effect, 100 complete control
# [18] = Postemergence, 250 g ai/ha, scale 0 to 100
# [19] = Preemergence, 31 g ai/ha, scale of 0 to 100, 0 is no effect, 100 is complete control
# [20] = Preemergence, 62 g ai/ha, scale 0 to 100, 0 no effect, 100 complete control
# [21] = Preemergence, 125 g ai/ha, scale 0 to 100, 0 no effect, 100 complete control
# [22] = Preemergence, 250 g ai/ha, scale 0 to 100, 0 no effect, 100 complete control
# [23] = Preemergence, 62 g ai/ha, scale of 0 to 100, 0 is no effect, 100 is complete control
smiles,measurement,setting,value
Fc1ccc(-n2nc(Cc3ccnc(C(F)(F)F)c3)c(OC(F)F)n2)cc1 [Compound 25],Barnyardgrass plant response rating,[1]; [11],50
same,Barnyardgrass plant response rating,[1]; [12],90
same,"Plant response rating, Barnyardgrass",[1]; [13],80
same,"Plant response rating, Barnyardgrass",[1]; [14],90
same,"Crabgrass, Large plant response rating",[2]; [11],90
same,"Crabgrass, Large plant response rating",[2]; [12],90
same,"Plant response rating, Crabgrass, Large",[2]; [13],90
same,"Plant response rating, Crabgrass, Large",[2]; [14],100
same,Pigweed plant response rating,[3]; [11],100
same,Pigweed plant response rating,[3]; [12],100
same,"Plant response rating, Pigweed",[3]; [13],100
same,"Plant response rating, Pigweed",[3]; [14],100
same,Wheat plant response rating,[4]; [11],40
same,Wheat plant response rating,[4]; [12],60
same,"Plant response rating, Wheat",[4]; [13],20
same,"Plant response rating, Wheat",[4]; [14],80
same,"Plant response rating, Blackgrass",[5]; [15],10
same,"Plant response rating, Blackgrass",[5]; [16],35
same,"Plant response rating, Blackgrass",[5]; [17],40
same,"Plant response rating, Blackgrass",[5]; [18],60
same,"Plant response rating, Blackgrass",[5]; [19],60
same,"Plant response rating, Blackgrass",[5]; [20],85
same,"Plant response rating, Blackgrass",[5]; [21],95
same,"Plant response rating, Blackgrass",[5]; [22],100
same,"Plant response rating, Corn",[6]; [15],20
same,"Plant response rating, Corn",[6]; [16],20
same,"Plant response rating, Corn",[6]; [17],20
same,"Plant response rating, Corn",[6]; [18],25
same,"Plant response rating, Corn",[6]; [19],0
same,"Plant response rating, Corn",[6]; [20],0
same,"Plant response rating, Corn",[6]; [21],5
same,"Plant response rating, Corn",[6]; [22],10
same,"Plant response rating, Crabgrass, Large",[7]; [15],15
same,"Plant response rating, Crabgrass, Large",[7]; [16],20
same,"Plant response rating, Crabgrass, Large",[7]; [17],40
same,"Plant response rating, Crabgrass, Large",[7]; [18],65
same,"Plant response rating, Crabgrass, Large",[7]; [19],98
same,"Plant response rating, Crabgrass, Large",[7]; [23],100
same,"Plant response rating, Crabgrass, Large",[7]; [21],100
same,"Plant response rating, Crabgrass, Large",[7]; [22],100
same,"Plant response rating, Foxtail, Giant",[8]; [15],35
same,"Plant response rating, Foxtail, Giant",[8]; [16],45
same,"Plant response rating, Foxtail, Giant",[8]; [17],55
same,"Plant response rating, Foxtail, Giant",[8]; [18],60
same,"Plant response rating, Foxtail, Giant",[8]; [19],98
same,"Plant response rating, Foxtail, Giant",[8]; [23],100
same,"Plant response rating, Foxtail, Giant",[8]; [21],100
same,"Plant response rating, Foxtail, Giant",[8]; [22],100
same,"Plant response rating, Lambsquarters",[9]; [15],70
same,"Plant response rating, Lambsquarters",[9]; [16],80
same,"Plant response rating, Lambsquarters",[9]; [17],98
same,"Plant response rating, Lambsquarters",[9]; [18],98
same,"Plant response rating, Lambsquarters",[9]; [19],90
same,"Plant response rating, Lambsquarters",[9]; [23],90
same,"Plant response rating, Lambsquarters",[9]; [21],98
same,"Plant response rating, Lambsquarters",[9]; [22],98
same,"Plant response rating, Nutsedge, Yellow",[10]; [15],5
same,"Plant response rating, Nutsedge, Yellow",[10]; [16],5
same,"Plant response rating, Nutsedge, Yellow",[10]; [17],10
same,"Plant response rating, Nutsedge, Yellow",[10]; [18],10
same,"Plant response rating, Nutsedge, Yellow",[10]; [19],0
same,"Plant response rating, Nutsedge, Yellow",[10]; [23],0
same,"Plant response rating, Nutsedge, Yellow",[10]; [21],0
same,"Plant response rating, Nutsedge, Yellow",[10]; [22],0
